Experiments:
[1] = Urine pharmacokinetics after a single oral dose in fasted healthy female subjects; assay type: in vivo, human; conditions: 2 gram secnidazole microgranule formulation (70% drug in core)
[2] = Plasma pharmacokinetics after a single oral dose in fasted healthy female subjects; assay type: in vivo, human; conditions: 2 gram secnidazole microgranule formulation (70% drug in core)

% FE, Geometric Mean (SD) [1]: 14.991 (3.0081) % | % FE, Mean (SD) [1]: 15.300 (3.5549) % | % FE, Median [1]: 14.943% | Ae0-168, Geometric Mean (SD) [1]: 0.300 (0.0602) g | Ae0-168, Mean (SD) [1]: 0.306 (0.0711) g | Ae0-168, Median [1]: 0.299 g | λz, Mean (SD) [2]: 0.0422 (0.007544) 1/h | λz, Median [2]: 0.04047 h⁻¹
Compound: Cc1ncc([N+](=O)[O-])n1CC(C)O (centres unmarked) [Secnidazole, 1-(2-hydroxypropyl)-2-methyl-5-nitromidazole]

Reference: patent US11253501B2, “Secnidazole formulations and use in treating bacterial vaginosis” (LUPIN INC., priority 2015, dated 2022)
